Laboratory results taken from patent EP3928779A1 (Chugai Seiyaku Kabushiki Kaisha, priority 2014, dated 2016).

System: rat small-intestinal brush border membrane vesicles
Assay: Inhibitory effect on 33PO4 uptake into rat small-intestinal brush border membrane vesicles (rapid filtration method)
Format: biochemical
Conditions: 33PO4 uptake into rat small-intestinal BBMVs; test compound 1 µM; reacted for 60 seconds
How it was run: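 Uptake of ^33PO4 was measured by rapid filtration and liquid scintillation counting of filter-retained vesicles, after quenching with ice-cold 110 mM NaCl/1 mM KH2PO4/10 mM HEPES pH 7.5. Vesicles were brush border membranes from the upper small intestine of female Wistar rats aged 4–5 weeks.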

Row | Compound | Rate of uptake inhibition (%) (1 µM)
1 | CN1N(Cc2ccc(OCCN3CCOCC3)c(F)c2F)C(=O)C(C(=O)Nc2ccc(Cl)cc2-c2ccc(C(F)(F)F)nc2)=C(O)C12CCCC2 [Example 288] | 61%
2 | CSc1ccc(-c2cc(C(F)(F)F)ccc2NC(=O)C2=C(O)C3(CCCC3)N(C)N(Cc3ccc(OCCN4CCOCC4)c(F)c3F)C2=O)cn1 [Example 289] | 55%
3 | Cc1c(-c2cc(C(F)(F)F)ccc2NC(=O)C2=C(O)C3(CCCC3)N(C)N(Cc3ccc(OCCN4CCOCC4)c(F)c3F)C2=O)ncnc1C(F)(F)F [Example 290] | 59%
4 | CCC1(CC)C(O)=C(C(=O)Nc2ccc(C(F)(F)F)cc2-c2cc(C(F)(F)F)ncn2)C(=O)N(Cc2ccc(OCCN3CCOCC3)c(F)c2F)N1C [Example 291] | 47%
5 | CCC1(CC)C(O)=C(C(=O)Nc2ccc(Cl)cc2-c2cc(C(F)(F)F)ncn2)C(=O)N(Cc2ccc(OCCN3CCOCC3)c(F)c2F)N1C [Example 292] | 44%
6 | CCC1(CC)C(O)=C(C(=O)Nc2ccc(C(F)(F)F)cc2-c2ccc(C(F)(F)F)nc2)C(=O)N(Cc2ccc(OCCN3CCOCC3)c(F)c2F)N1C [Example 293] | 47%
7 | CCC1(CC)C(O)=C(C(=O)Nc2ccc(Cl)cc2-c2ccc(C(F)(F)F)nc2)C(=O)N(Cc2ccc(OCCN3CCOCC3)c(F)c2F)N1C [Example 294] | 40%
8 | CN1N(Cc2ccc(OCCN3CCOCC3)c(F)c2F)C(=O)C(C(=O)Nc2ccc(C(F)(F)F)cc2-c2cc(C(F)(F)F)ncn2)=C(O)C12CCCCC2 [Example 295] | 21%
9 | Cc1c(-c2cc(C(F)(F)F)ccc2NC(=O)C2=C(O)C3(CCCCC3)N(C)N(Cc3ccc(OCCN4CCOCC4)c(F)c3F)C2=O)ncnc1C(F)(F)F [Example 296] | 17%
10 | CN1N(Cc2ccc(OCCN3CCOCC3)c(F)c2F)C(=O)C(C(=O)Nc2ccc(Cl)cc2-c2cc(C(F)(F)F)ncn2)=C(O)C12CCCCC2 [Example 297] | 36%
11 | CN1N(Cc2ccc(OCCN3CCOCC3)c(F)c2F)C(=O)C(C(=O)Nc2ccc(Br)c(C(F)(F)F)n2)=C(O)C12CCCCC2 [Example 298] | 10%
12 | CC1(C)C(O)=C(C(=O)Nc2ccc(C(F)(F)F)cc2-c2cc(C(F)(F)F)ncn2)C(=O)N(Cc2cccc(F)c2F)N1c1ccccc1 [Example 299] | 45%
13 | CN1N(Cc2cccc(F)c2F)C(=O)C(C(=O)Nc2ccc(C(F)(F)F)cc2-c2cc(C(F)(F)F)ncn2)=C(O)C12CCC2 [Example 300] | 74%
14 | CN1N(Cc2cccc(F)c2F)C(=O)C(C(=O)Nc2ccc(C(F)(F)F)cc2-c2ccc(C(F)(F)F)nc2)=C(O)C12CCC2 [Example 301] | 79%
15 | COc1cc(-c2cc(C(F)(F)F)ccc2NC(=O)C2=C(O)C(C)(C)N(C)N(Cc3cccc(F)c3F)C2=O)cnc1C#N [Example 302] | 79%
16 | CN1N(Cc2cccc(F)c2F)C(=O)C(C(=O)Nc2ccc(C(F)(F)F)cc2-c2cc(C#N)ncn2)=C(O)C1(C)C [Example 303] | 42%
17 | CN1N(Cc2cccc(F)c2F)C(=O)C(C(=O)Nc2ccc(C(F)(F)F)nc2-c2ccc(C(F)(F)F)nc2)=C(O)C1(C)C [Example 304] | 51%
18 | CN1N(Cc2cccc(F)c2F)C(=O)C(C(=O)Nc2ccc(C(F)(F)F)cc2-c2cncc(C(F)(F)F)c2)=C(O)C1(C)C [Example 305] | 66%
19 | CN1N(Cc2cccc(F)c2F)C(=O)C(C(=O)Nc2ccc(C(F)(F)F)nc2-c2cncc(C(F)(F)F)c2)=C(O)C1(C)C [Example 306] | 58%
20 | CN1N(Cc2cccc(F)c2F)C(=O)C(C(=O)Nc2cc(C(F)(F)F)ccc2-c2ccc(C(F)(F)F)nc2)=C(O)C1(C)C [Example 307] | 41%

Row | Compound | Rate of uptake inhibition (%) (1 µM)
21 | CN1N(Cc2cccc(F)c2F)C(=O)C(C(=O)Nc2ccc(C(F)(F)F)cc2-c2ccc(S(=O)(=O)N(C)C)cc2)=C(O)C1(C)C [Example 308] | 63%
22 | CN1N(Cc2cccc(F)c2F)C(=O)C(C(=O)Nc2ccc(Cl)cc2-c2ccc(C(F)(F)F)nc2)=C(O)C1(C)C [Example 309] | 68%
23 | CSc1ccc(-c2cc(C(F)(F)F)ccc2NC(=O)C2=C(O)C(C)(C)N(C)N(Cc3cccc(F)c3F)C2=O)cn1 [Example 310] | 63%
24 | Cc1c(C#N)ncnc1-c1cc(C(F)(F)F)ccc1NC(=O)C1=C(O)C(C)(C)N(C)N(Cc2cccc(F)c2F)C1=O [Example 311] | 65%
25 | CN1N(Cc2cccc(F)c2F)C(=O)C(C(=O)Nc2ccc(C(F)(F)F)cc2-c2ncnc(C#N)c2Cl)=C(O)C1(C)C [Example 312] | 74%
26 | CN1N(Cc2ccc(OCCN3CCOCC3)c(F)c2F)C(=O)C(C(=O)Nc2ccc(C(F)(F)F)cc2-c2cc(C(F)(F)F)ncn2)=C(O)C1(C)C [Example 313, 2-[[2,3-Difluoro-4-(2-morpholin-4-ylethoxy)phenyl]methyl]-5-hydroxy-1,6,6-trimethyl-3-oxo-N-[4-(trifluoromethyl)-2-[6-(trifluoromethyl)pyrimidin-4-yl]phenyl]pyridazine-4-carboxamide] | 65%
27 | CN1N(Cc2ccc(OCCN3CCOCC3)c(F)c2F)C(=O)C(C(=O)Nc2ccc(C(F)(F)F)cc2-c2ccc(C(F)(F)F)nc2)=C(O)C1(C)C [Example 314, 2-[[2,3-Difluoro-4-(2-morpholin-4-ylethoxy)phenyl)methyl]-5-hydroxy-1,6,6-trimethyl-3-oxo-N-[4-(trifluoromethyl)-2-[6-(trifluoromethyl)pyridin-3-yl]phenyl]pyridazine-4-carboxamide] | 72%
28 | CN1N(Cc2ccc(C#CCN3CCOCC3)c(F)c2F)C(=O)C(C(=O)Nc2ccc(C(F)(F)F)cc2-c2cc(C(F)(F)F)ncn2)=C(O)C1(C)C [Example 315, 2-[[2,3-Difluoro-4-(3-morpholin-4-ylprop-1-ynil)phenyl]methyl]-5-hydroxy-1,6,6-trimethyl-3-oxo-N-[4-(trifluoromethyl)-2-[6-(trifluoromethyl)pyrimidin-4-yl]phenyl]pyridazine-4-carboxamide] | 63%
29 | CN1N(Cc2ccc(C#CCN3CCOCC3)c(F)c2F)C(=O)C(C(=O)Nc2ccc(Cl)cc2-c2cc(C(F)(F)F)ncn2)=C(O)C1(C)C [Example 316, N-[4-Chloro-2-[6-(trifluoromethyl)pyrimidin-4-yl]phenyl]-2-[[2,3-difluoro-4-(3-morpholin-4-ylprop-1-ynil)phenyl]methyl]-5-hydroxy-1,6,6-trimethyl-3-oxopyridaxine-4-carboxamide] | 64%
30 | CN1N(Cc2ccc(OCCN3CCOCC3)c(F)c2F)C(=O)C(C(=O)Nc2ccc(C(F)(F)F)cc2-c2cc(C(F)(F)F)ncn2)=C(O)C12CCCC2 [Example 318, 7-[[2,3-Difluoro-4-(2-morpholin-4-ylethoxy)phenyl]methyl]-10-hydroxy-6-methyl-8-oxo-N-[4-(trifluoromethyl)-2-[6-(tritluoromethyl)pyrimidin-4-yl]phenyl]-6,7-diazaspiro[4.5]dec-9-ene-9-carboxamide] | 43%
31 | CN1N(Cc2ccc(OCCCC(=O)O)c(F)c2F)C(=O)C(C(=O)Nc2ccc(C(F)(F)F)cc2-c2cc(C(F)(F)F)ncn2)=C(O)C12CCCC2 [Example 332, 4-[2,3-Difluoro-4-[[10-hydroxy-6-methyl-8-oxo-9-[[4-(trifluoromethyl)-2-[6-(trifluoromethyl)pyrimidin-4-yl]phenyl]carbamoyl]-6,7-diazaspiro[4.5]dec-9-en-7-yl]methyl]phenoxy]butanoate] | 3%
32 | CN1N(Cc2ccc(OCCCCCC(=O)O)c(F)c2F)C(=O)C(C(=O)Nc2ccc(C(F)(F)F)cc2-c2cc(C(F)(F)F)ncn2)=C(O)C12CCCC2 [Example 334] | 22%
33 | CN1N(Cc2ccc(OCCCCCCC(=O)O)c(F)c2F)C(=O)C(C(=O)Nc2ccc(C(F)(F)F)cc2-c2cc(C(F)(F)F)ncn2)=C(O)C12CCCC2 [Example 335] | 30%
34 | CN1N(Cc2ccc(OCC(=O)N3CCOCC3)c(F)c2F)C(=O)C(C(=O)Nc2ccc(C(F)(F)F)cc2-c2cc(C(F)(F)F)ncn2)=C(O)C12CCC2 [Example 336] | 44%
35 | CN1N(Cc2ccc(OCCN3CCOC(=O)C3)c(F)c2F)C(=O)C(C(=O)Nc2ccc(C(F)(F)F)cc2-c2cc(C(F)(F)F)ncn2)=C(O)C12CCC2 [Example 337, 8-[[2,3-Difluoro-4-[2-(2-oxomorpholin-4-yl)ethoxy]phenyl]methyl]-5-hydroxy-9-methyl-7-oxo-N-[4-(trifluoromethyl)-2-[6-(trifluoromethyl)pyrimidin-4-yl]phenyl)-8.9-diazaspiro [3. 5]non-5-ene-6-carboxamide] | 47%
36 | CN(CCOc1ccc(CN2C(=O)C(C(=O)Nc3ccc(C(F)(F)F)cc3-c3cc(C(F)(F)F)ncn3)=C(O)C3(CCC3)N2C)c(F)c1F)C1CCOC1 (stereo not drawn) [Example 338, 6-[[2,3-Difluoro-4-[2-[methyl(oxolan-3-yl)amino]ethoxy]phenyl]methyl]-9-hydroxy-5-methyl-7-oxo-N-[4-(trifluoromethyl)-2-[6-(trifluoromethyl)pyrimidin-4-yl]phenyl]-5,6-diazaspiro[3.5]non-8-ene-8-carboxamide] | 66%
37 | CN1N(Cc2ccc(OCCN3[C@@H]4COC[C@H]3C4)c(F)c2F)C(=O)C(C(=O)Nc2ccc(C(F)(F)F)cc2-c2cc(C(F)(F)F)ncn2)=C(O)C12CCC2 [Example 339] | 66%
38 | CN1N(Cc2ccc(OCCN3C4CCC3COC4)c(F)c2F)C(=O)C(C(=O)Nc2ccc(C(F)(F)F)cc2-c2cc(C(F)(F)F)ncn2)=C(O)C12CCC2 [Example 340] | 63%
39 | CN1N(Cc2ccc(OCCN3CCOCC3(C)C)c(F)c2F)C(=O)C(C(=O)Nc2ccc(C(F)(F)F)cc2-c2cc(C(F)(F)F)ncn2)=C(O)C12CCC2 [Example 341] | 64%
